From ChEMBL document CHEMBL5321200, “Discovery of the GSH responsive "Y-PROTACs" targeting ALK and CDK4/6 as a potential treatment for cancer” (Eur J Med Chem, 2023)
pEC50, pIC50: −log10 of the molar value. Calls of active or inactive are those of the source. The calls are words filed in the database; no cut-off is given here.

Experiments:
[1] = Cytotoxicity against human L02 cells assessed as inhibition of cell growth incubated for 3 to 5 days by MTT assay; assay type: toxicity, cell-based
[2] = biological target: Protein cereblon/Cyclin-dependent kinase 6 (Homo sapiens) (UniProt Q00534+Q96SW2); assay: PROTAC activity at CRBN/CDK6 in human NCI-H2228 cells assessed as reduction in CDK6 protein level by Western blot analysis; assay type: cell-based
Sequence of Protein cereblon/Cyclin-dependent kinase 6 (Homo sapiens) (Q00534 whole entry, looked up): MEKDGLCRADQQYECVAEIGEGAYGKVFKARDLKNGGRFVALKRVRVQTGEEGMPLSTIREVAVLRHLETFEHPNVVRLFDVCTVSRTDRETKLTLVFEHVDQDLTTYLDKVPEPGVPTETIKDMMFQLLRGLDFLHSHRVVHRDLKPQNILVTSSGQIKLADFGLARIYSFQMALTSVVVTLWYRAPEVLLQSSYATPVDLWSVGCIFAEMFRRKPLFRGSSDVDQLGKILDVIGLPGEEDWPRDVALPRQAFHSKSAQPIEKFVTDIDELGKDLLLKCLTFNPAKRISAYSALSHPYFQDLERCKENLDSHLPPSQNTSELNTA
Sequence of Protein cereblon/Cyclin-dependent kinase 6 (Homo sapiens) (Q96SW2 whole entry, looked up): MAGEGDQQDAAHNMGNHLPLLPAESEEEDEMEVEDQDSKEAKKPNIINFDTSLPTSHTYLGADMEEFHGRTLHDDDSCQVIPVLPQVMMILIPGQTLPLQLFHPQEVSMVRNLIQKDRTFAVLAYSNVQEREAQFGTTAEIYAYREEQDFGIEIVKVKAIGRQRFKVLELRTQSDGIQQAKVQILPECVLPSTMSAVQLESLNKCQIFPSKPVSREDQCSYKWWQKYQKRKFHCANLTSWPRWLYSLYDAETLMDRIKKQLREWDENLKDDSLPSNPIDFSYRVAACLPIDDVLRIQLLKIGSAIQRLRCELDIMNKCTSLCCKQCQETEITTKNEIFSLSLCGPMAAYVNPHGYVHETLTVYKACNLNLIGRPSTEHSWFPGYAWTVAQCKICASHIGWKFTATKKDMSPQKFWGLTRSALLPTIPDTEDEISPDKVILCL

[3] = biological target: Protein cereblon/ALK tyrosine kinase receptor/Echinoderm microtubule-associated protein-like 4 (Homo sapiens) (UniProt Q9UM73+Q9HC35+Q96SW2); assay: PROTAC activity at CRBN/EML4-ALK in human L02 cells assessed as reduction in ALK protein level at 1 to 20 uM incubated for 24 hrs in presence of GSH by Western blot analysis; assay type: cell-based; conditions: dose 1-20 µM
[4] = biological target: Protein cereblon/ALK tyrosine kinase receptor/Echinoderm microtubule-associated protein-like 4 (Homo sapiens, UniProt Q96SW2+Q9HC35+Q9UM73); assay: PROTAC activity at CRBN/EML4-ALK in human NCI-H3122 cells assessed as reduction in EML4-ALK fusion protein level incubated for 24 hrs by Western blot analysis; assay type: cell-based
Sequence of Protein cereblon/ALK tyrosine kinase receptor/Echinoderm microtubule-associated protein-like 4 (Q9UM73 whole entry, the tested form may be a part): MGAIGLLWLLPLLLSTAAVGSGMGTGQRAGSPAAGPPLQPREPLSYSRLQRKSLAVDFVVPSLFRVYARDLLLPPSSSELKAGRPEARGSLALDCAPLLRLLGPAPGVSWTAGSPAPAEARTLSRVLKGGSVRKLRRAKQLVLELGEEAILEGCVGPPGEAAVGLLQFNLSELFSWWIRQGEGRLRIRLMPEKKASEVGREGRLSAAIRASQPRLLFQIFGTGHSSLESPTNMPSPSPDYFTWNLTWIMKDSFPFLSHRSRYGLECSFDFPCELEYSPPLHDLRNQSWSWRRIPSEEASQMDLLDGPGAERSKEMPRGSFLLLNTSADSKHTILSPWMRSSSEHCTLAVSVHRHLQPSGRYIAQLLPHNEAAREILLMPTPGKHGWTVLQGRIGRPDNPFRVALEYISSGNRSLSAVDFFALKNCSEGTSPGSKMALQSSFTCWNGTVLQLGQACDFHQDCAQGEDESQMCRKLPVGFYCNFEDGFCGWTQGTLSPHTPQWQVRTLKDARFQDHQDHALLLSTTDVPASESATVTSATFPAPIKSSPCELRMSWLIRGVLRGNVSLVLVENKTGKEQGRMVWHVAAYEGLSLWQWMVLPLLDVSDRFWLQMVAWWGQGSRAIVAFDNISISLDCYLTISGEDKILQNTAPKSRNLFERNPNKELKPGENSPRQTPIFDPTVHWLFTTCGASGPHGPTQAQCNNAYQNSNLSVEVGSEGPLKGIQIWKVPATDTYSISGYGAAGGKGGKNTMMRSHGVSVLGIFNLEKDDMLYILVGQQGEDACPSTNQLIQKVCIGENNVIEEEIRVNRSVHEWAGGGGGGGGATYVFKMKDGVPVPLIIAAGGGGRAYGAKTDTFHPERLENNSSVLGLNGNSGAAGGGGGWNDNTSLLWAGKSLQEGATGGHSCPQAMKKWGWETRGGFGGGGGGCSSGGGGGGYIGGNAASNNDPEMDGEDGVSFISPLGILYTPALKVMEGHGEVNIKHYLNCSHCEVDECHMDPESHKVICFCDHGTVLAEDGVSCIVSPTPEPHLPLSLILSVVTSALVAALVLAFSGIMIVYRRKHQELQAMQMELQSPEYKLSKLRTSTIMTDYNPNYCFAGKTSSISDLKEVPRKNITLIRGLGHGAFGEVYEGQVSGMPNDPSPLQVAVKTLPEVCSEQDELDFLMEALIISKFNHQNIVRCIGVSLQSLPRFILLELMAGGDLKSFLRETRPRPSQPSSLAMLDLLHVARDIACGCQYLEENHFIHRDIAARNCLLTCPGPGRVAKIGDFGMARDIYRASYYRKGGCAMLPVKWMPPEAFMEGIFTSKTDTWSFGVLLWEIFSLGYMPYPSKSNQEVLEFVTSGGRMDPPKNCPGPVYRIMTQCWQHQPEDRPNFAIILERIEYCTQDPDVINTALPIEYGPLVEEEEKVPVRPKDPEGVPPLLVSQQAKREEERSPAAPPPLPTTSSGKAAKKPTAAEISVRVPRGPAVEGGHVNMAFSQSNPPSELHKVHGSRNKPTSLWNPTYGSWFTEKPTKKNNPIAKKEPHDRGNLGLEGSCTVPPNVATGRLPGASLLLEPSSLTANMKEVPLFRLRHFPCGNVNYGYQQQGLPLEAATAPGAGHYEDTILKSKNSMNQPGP
Sequence of Protein cereblon/ALK tyrosine kinase receptor/Echinoderm microtubule-associated protein-like 4 (Q9HC35 whole entry, the tested form may be a part): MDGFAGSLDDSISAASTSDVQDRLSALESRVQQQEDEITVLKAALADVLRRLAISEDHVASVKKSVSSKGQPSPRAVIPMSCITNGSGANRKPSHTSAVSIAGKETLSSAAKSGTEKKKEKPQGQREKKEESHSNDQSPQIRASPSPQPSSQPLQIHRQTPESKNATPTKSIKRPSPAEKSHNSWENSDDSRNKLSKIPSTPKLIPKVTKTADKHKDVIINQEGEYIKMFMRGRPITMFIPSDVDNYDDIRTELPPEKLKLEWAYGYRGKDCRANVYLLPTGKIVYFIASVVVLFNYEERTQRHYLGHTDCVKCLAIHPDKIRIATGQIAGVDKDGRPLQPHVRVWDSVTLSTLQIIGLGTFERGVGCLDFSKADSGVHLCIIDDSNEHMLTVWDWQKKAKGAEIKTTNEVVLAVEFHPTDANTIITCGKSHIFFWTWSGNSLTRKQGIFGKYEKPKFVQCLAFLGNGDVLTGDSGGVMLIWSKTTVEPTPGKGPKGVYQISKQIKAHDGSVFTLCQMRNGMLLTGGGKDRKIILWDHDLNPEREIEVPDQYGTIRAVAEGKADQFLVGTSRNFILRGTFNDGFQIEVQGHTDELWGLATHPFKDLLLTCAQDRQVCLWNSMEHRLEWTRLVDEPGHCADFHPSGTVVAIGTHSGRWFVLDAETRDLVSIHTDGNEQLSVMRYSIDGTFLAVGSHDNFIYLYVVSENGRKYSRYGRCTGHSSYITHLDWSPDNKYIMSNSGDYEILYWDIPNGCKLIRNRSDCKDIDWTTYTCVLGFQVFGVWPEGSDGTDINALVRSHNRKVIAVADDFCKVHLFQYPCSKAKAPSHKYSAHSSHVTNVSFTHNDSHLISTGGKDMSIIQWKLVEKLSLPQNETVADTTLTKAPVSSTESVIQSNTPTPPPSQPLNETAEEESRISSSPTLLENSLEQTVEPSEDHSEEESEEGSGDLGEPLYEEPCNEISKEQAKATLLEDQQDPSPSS
Sequence of Protein cereblon/ALK tyrosine kinase receptor/Echinoderm microtubule-associated protein-like 4 (Q96SW2 whole entry, the tested form may be a part): as the sequence (Q96SW2 whole entry, looked up) above

[5] = biological target: Protein cereblon/Cyclin-dependent kinase 4 (Homo sapiens, UniProt P11802+Q96SW2); assay: PROTAC activity at CRBN/CDK4 in human NCI-H3122 cells assessed as reduction in CDK4 protein level incubated for 24 hrs by Western blot analysis; assay type: cell-based
Sequence of Protein cereblon/Cyclin-dependent kinase 4 (P11802 whole entry): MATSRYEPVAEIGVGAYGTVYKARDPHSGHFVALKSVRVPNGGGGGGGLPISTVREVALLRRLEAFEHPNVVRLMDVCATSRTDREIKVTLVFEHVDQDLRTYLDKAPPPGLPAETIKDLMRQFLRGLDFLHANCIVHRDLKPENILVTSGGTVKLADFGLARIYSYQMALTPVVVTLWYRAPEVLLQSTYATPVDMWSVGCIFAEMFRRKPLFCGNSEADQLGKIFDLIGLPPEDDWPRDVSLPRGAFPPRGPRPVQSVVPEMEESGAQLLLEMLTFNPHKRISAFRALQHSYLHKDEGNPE
Sequence of Protein cereblon/Cyclin-dependent kinase 4 (Q96SW2 whole entry): as the sequence (Q96SW2 whole entry, looked up) above

NCI-H3122 [6] = assay: Cell cycle arrest in human NCI-H3122 cells assessed as G2/M phase cells at 0.625 uM incubated for 24 hrs by propidium iodide staining based flow cytometric analysis (reference value: 20.89%); assay type: functional
NCI-H3122 [7] = assay: Cell cycle arrest in human NCI-H3122 cells assessed as accumulation of cells at S phase at 2.5 uM incubated for 24 hrs by propidium iodide staining based flow cytometric analysis (reference value: 29.94%); assay type: functional
NCI-H3122 [8] = assay: Antitumor activity against human NCI-H3122 cells xenografted in BALB/c nude mouse assessed as tumor growth inhibition at 50 mg/kg, IG administered once daily for 18 days and measured after 12 hrs of last dose relative to control; assay type: functional; conditions: NCI-H3122, po, time 444 hrs, read-out: TGI

Activity [2]: inactive | Activity [3]: Active | pEC50 [4]: 5.55 | pEC50 [5]: 5.43
SMILES: CC(=O)c1c(C)c2cnc(Nc3ccc(N4CCN(CC(=O)NCCSSCCN(CC(=O)NCCNc5cccc6c5C(=O)N(C5CCC(=O)NC5=O)C6=O)C(=O)CCCCCCC(=O)N5CCC(c6cc(OC(C)C)c(Nc7ncc(Cl)c(Nc8ccccc8S(=O)(=O)C(C)C)n7)cc6C)CC5)CC4)cn3)nc2n(C2CCCC2)c1=O (stereo not drawn)
pIC50 [1]: 4.26 | Activity (NCI-H3122 [6]): 16.42% | Activity (NCI-H3122 [7]): 6.04% | inhibition in vivo at 50 mg/kg (NCI-H3122 [8]): 54.8%
